According to PubChem BioAssay AID248 (DTP/NCI, 2004):
Toxic doses and inconclusive results are not listed. Cut-off read from the data, not from the text of the source: active = T/C of 150% or more; inactive = T/C below 125%.

Tested on: L1210 leukemia ip in BDF1 mice, survival T/C
Assay: NCI In Vivo Anticancer Drug Screen. Data for tumor model L1210 Leukemia (intraperitoneal) in B6D2F1 (BDF1) mice
Conditions: endpoint: mean survival time, higher = longer survival
Method in brief: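 Transplanted-tumor mice were given test agent; controls received vehicle only. Survival readings from the two groups were divided (treated over control).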

[1] = dose: 100.0 mg/kg/injection, schedule: Q01DX001 (ip), vehicle: saline
[2] = dose: 200.0 mg/kg/injection, schedule: Q01DX001 (ip), vehicle: saline
[3] = dose: 400.0 mg/kg/injection, schedule: Q01DX001 (ip), vehicle: saline
[4] = dose: 100.0 mg/kg/injection, schedule: Q01DX009 (ip), vehicle: Klucel (hydroxypropylcellulose) (HPC)
[5] = dose: 100.0 mg/kg/injection, schedule: Q04DX003 (ip), vehicle: Klucel (hydroxypropylcellulose) (HPC)
[6] = dose: 200.0 mg/kg/injection, schedule: Q01DX009 (ip), vehicle: Klucel (hydroxypropylcellulose) (HPC)
[7] = dose: 200.0 mg/kg/injection, schedule: Q04DX003 (ip), vehicle: Klucel (hydroxypropylcellulose) (HPC)
[8] = dose: 400.0 mg/kg/injection, schedule: Q01DX009 (ip), vehicle: Klucel (hydroxypropylcellulose) (HPC)
[9] = dose: 400.0 mg/kg/injection, schedule: Q04DX003 (ip), vehicle: Klucel (hydroxypropylcellulose) (HPC)
[10] = dose: 100.0 mg/kg/injection, schedule: Q04DX003 (ip), vehicle: saline
[11] = dose: 200.0 mg/kg/injection, schedule: Q04DX003 (ip), vehicle: saline
[12] = dose: 400.0 mg/kg/injection, schedule: Q04DX003 (ip), vehicle: saline
[13] = dose: 12.5 mg/kg/injection, schedule: Q01DX009 (ip), vehicle: Klucel (hydroxypropylcellulose) (HPC)
[14] = dose: 12.5 mg/kg/injection, schedule: Q04DX003 (ip), vehicle: Klucel (hydroxypropylcellulose) (HPC)
[15] = dose: 25.0 mg/kg/injection, schedule: Q01DX009 (ip), vehicle: Klucel (hydroxypropylcellulose) (HPC)
[16] = dose: 50.0 mg/kg/injection, schedule: Q04DX003 (ip), vehicle: Klucel (hydroxypropylcellulose) (HPC)
[17] = dose: 100.0 mg/kg/injection, schedule: Q01DX009 (ip), vehicle: saline with Tween-80
[18] = dose: 200.0 mg/kg/injection, schedule: Q01DX009 (ip), vehicle: saline with Tween-80
[19] = dose: 400.0 mg/kg/injection, schedule: Q01DX009 (ip), vehicle: saline with Tween-80
[20] = dose: 75.0 mg/kg/injection, schedule: Q01DX001 (ip), vehicle: saline
[21] = dose: 100.0 mg/kg/injection, schedule: Q01DX009 (ip), vehicle: saline

Measured: T/C

O=C(CCC(=O)[O][Sn]([c]1ccccc1)([c]1ccccc1)[c]1ccccc1)[O][Sn]([c]1ccccc1)([c]1ccccc1)[c]1ccccc1
inactive: dose: 1.56 mg/kg/injection, schedule: Q01DX009 (ip), vehicle: saline with Tween-80 93 % of control | dose: 3.12 mg/kg/injection, schedule: Q01DX009 (ip), vehicle: saline with Tween-80 90 % of control | dose: 6.25 mg/kg/injection, schedule: Q04DX003 (ip), vehicle: saline with Tween-80 95 % of control | dose: 12.5 mg/kg/injection, schedule: Q01DX001 (ip), vehicle: saline 104 % of control | dose: 25.0 mg/kg/injection, schedule: Q01DX001 (ip), vehicle: saline 91 % of control

CCOC(=O)C1=NN(c2ccccc2)C(=O)C1N=Nc1ccc(S(N)(=O)=O)cc1 (centres undefined)
inactive: [1] 95 % of control | [2] 93 % of control | [3] 93 % of control

O=C(CCCCC(=O)Nc1cc(C(=O)Nc2ccc(C3=NCCN3)cc2)ccc1C(=O)Nc1ccc(C2=NCCN2)cc1)Nc1cc(C(=O)Nc2ccc(C3=NCCN3)cc2)ccc1C(=O)Nc1ccc(C2=NCCN2)cc1
inactive: dose: 1.25 mg/kg/injection, schedule: Q01DX Z (ip), vehicle: saline 90 % of control | dose: 2.5 mg/kg/injection, schedule: Q01DX Z (ip), vehicle: saline 95 % of control | dose: 5.0 mg/kg/injection, schedule: Q01DX Z (ip), vehicle: saline 88 % of control | dose: 10.0 mg/kg/injection, schedule: Q01DX Z (ip), vehicle: saline 101 % of control | dose: 15.0 mg/kg/injection, schedule: Q01DX Z (ip), vehicle: methylcellulose (MC) 103 % of control | dose: 30.0 mg/kg/injection, schedule: Q01DX Z (ip), vehicle: methylcellulose (MC) 110 % of control

O=[N+]([O-])c1ccc(N=Nc2c3ccccc3c(O)n2CO)c([N+](=O)[O-])c1
inactive: [1] 97 % of control | [2] 97 % of control | [3] 98 % of control

Cc1cc(C)c(-c2c(Br)c(OC(=O)c3ccc([N+](=O)[O-])cc3)c(-c3c(C)cc(C)c(Br)c3C)c(Br)c2OC(=O)c2ccc([N+](=O)[O-])cc2)c(C)c1Br
inactive: [4] 101 % of control | [5] 104 % of control | [6] 97 % of control | [7] 96 % of control | [8] 100 % of control | [9] 96 % of control

O=[N+]([O-])c1cccnc1Oc1cccc(C(F)(F)F)c1
inactive: [10] 100 % of control | [11] 105 % of control | [12] 104 % of control

CCOC(=O)CCc1ccc(N=NN(C)C(C)CC)cc1 (centres undefined)
inactive: dose: 100.0 mg/kg/injection, schedule: Q01DX001 (ip), vehicle: carboxymethylcellulose (CMC) 111 % of control | dose: 200.0 mg/kg/injection, schedule: Q01DX001 (ip), vehicle: carboxymethylcellulose (CMC) 105 % of control | dose: 400.0 mg/kg/injection, schedule: Q01DX001 (ip), vehicle: carboxymethylcellulose (CMC) 111 % of control

CC1(C)C(=NO)C(C)(C)C1=NO
inactive: [13] 105 % of control | [14] 108 % of control | [15] 106 % of control | [16] 104 % of control

Cc1ccc(NC(=O)C2C3C=CC(C3)C2C(=O)Nc2ccc(C)cc2)cc1 (centres undefined)
inactive: dose: 100.0 mg/kg/injection, schedule: Q04DX003 (ip), vehicle: saline with Tween-80 96 % of control | dose: 200.0 mg/kg/injection, schedule: Q04DX003 (ip), vehicle: saline with Tween-80 96 % of control | dose: 400.0 mg/kg/injection, schedule: Q04DX003 (ip), vehicle: saline with Tween-80 91 % of control

CN(C)c1ccc(/C=N/NC(=O)C(O)C(O)C(O)C(O)CO)c(Cl)c1 (centres undefined)
inactive: dose: 100.0 mg/kg/injection, schedule: Q04DX002 (ip), vehicle: saline with Tween-80 98 % of control | dose: 200.0 mg/kg/injection, schedule: Q04DX002 (ip), vehicle: saline with Tween-80 91 % of control | dose: 400.0 mg/kg/injection, schedule: Q04DX002 (ip), vehicle: saline with Tween-80 88 % of control

CCN(CC)C(C)(C)CCl
inactive: [1] 104 % of control

OCCc1ccccc1
inactive: [17] 96 % of control | [18] 100 % of control | [19] 99 % of control

O=C1CCC(N2C(=O)C3CCCCC3C2=O)C(=O)N1 (centres undefined)
inactive: [10] 97 % of control | [11] 93 % of control | [12] 101 % of control

CN(C)c1nc2nc[nH]c2c(=S)n1C
inactive: [1] 97 % of control | [2] 97 % of control | [3] 95 % of control

C[CH2][Hg][I]
inactive: dose: 25.0 mg/kg/injection, schedule: Q04DX002 (ip), vehicle: saline with Tween-80 95 % of control | dose: 50.0 mg/kg/injection, schedule: Q04DX002 (ip), vehicle: saline with Tween-80 97 % of control

CCCCc1c(N)nc(N)nc1N
inactive: dose: 75.0 mg/kg/injection, schedule: Q01DX001 (ip), vehicle: saline with Tween-80 103 % of control

O=C1c2ccccc2-c2ccccc2C1(Cl)Cl
inactive: [20] 105 % of control

Cc1cccc(C)c1NC(N)=S
inactive: [5] 98 % of control | [7] 90 % of control

C=CCc1ccc(OCCOCCN(CC=C(C)C)CC=C(C)C)c(OC)c1
inactive: [13] 100 % of control | [14] 96 % of control | [15] 97 % of control | dose: 25.0 mg/kg/injection, schedule: Q04DX003 (ip), vehicle: Klucel (hydroxypropylcellulose) (HPC) 98 % of control | dose: 50.0 mg/kg/injection, schedule: Q01DX009 (ip), vehicle: Klucel (hydroxypropylcellulose) (HPC) 95 % of control | [16] 88 % of control

CCOC(=O)NNC(N)=S
inactive: [4] 102 % of control | [5] 103 % of control | [6] 97 % of control | [7] 94 % of control | [8] 98 % of control | [9] 100 % of control

CC1CN1N (centres undefined)
inactive: dose: 25.0 mg/kg/injection, schedule: Q01DX009 (ip), vehicle: saline 101 % of control | dose: 50.0 mg/kg/injection, schedule: Q01DX009 (ip), vehicle: saline 101 % of control | dose: 50.0 mg/kg/injection, schedule: Q04DX003 (ip), vehicle: saline 109 % of control | [1] 105 % of control | [21] 98 % of control | [10] 103 % of control | [2] 105 % of control

CCOC(=O)NC(NC(=O)OCC)NC(=O)OCC
inactive: [21] 102 % of control | dose: 200.0 mg/kg/injection, schedule: Q01DX009 (ip), vehicle: saline 104 % of control | dose: 400.0 mg/kg/injection, schedule: Q01DX009 (ip), vehicle: saline 104 % of control

CCCOC1=C2CCCCC2CC1 (centres undefined)
inactive: [1] 113 % of control | [2] 113 % of control | [3] 102 % of control

CCCCCCCNC(=O)Nc1ccc(Cl)c(Cl)c1
inactive: [1] 95 % of control | [2] 90 % of control | [3] 97 % of control

COc1ccc(CCC(C)=O)cc1OC
inactive: [4] 97 % of control | [6] 93 % of control

CN(C)C(=O)CCOc1cccc2ccccc12
inactive: [20] 100 % of control

N#CN(Cc1ccc(Cl)cc1Cl)C(=O)OCOc1ccc(Cl)cc1
inactive: [17] 91 % of control | [18] 96 % of control | [19] 107 % of control
